The results in this text go back to US9919998B2, “Antibacterial agents: Nα-aroyl-N-aryl-phenylalaninamides” (priority 2014, dated 2018).

As usually defined, the MIC is the smallest concentration in the dilution series that meets the test's criterion for growth inhibition.

Each structure is given as a SMILES string. ≈ marks a conversion by molar mass, not a printed value.

Series [1] has as its system Mycobacterium tuberculosis H37Rv. As to the kind of experiment: Microplate Alamar Blue assay (MABA) MIC, M. tuberculosis. The class given is cell-based. The settings on record: read-out: MIC Mycobacterium tuberculosis H37Rv. An excerpt: (§1) Minimal inhibitory concentrations (MICs) in Mycobacterium tuberculosis H37Rv and Mycobacterium avium ATCC 25291 were quantified using microplate Alamar Blue assays as described (MABA; [Collins, L. & Franzblau, S. (1997) Microplate Alamar Blue assay versus BACTEC 460 system for high-throughput screening of compounds against Mycobacterium tuberculosis and Mycobacterium avium. Antimicrob. Agents Chemother. 41, 1004-1009]).
For orientation: Alamar Blue is a resazurin reagent that responds to reducing activity.

Series [2] deals with Mycobacterium avium ATCC 25291. In words: Microplate Alamar Blue assay (MABA) MIC, M. avium. The settings on record: ATCC25291, M. avium ATCC 25291. In kind it is cell-based.
Description: as §1

Series [3] deals with Mycobacterium smegmatis ATCC 19420. In words: Broth microdilution MIC, M. smegmatis. The class given is cell-based. The settings on record: Mycolicibacterium smegmatis, ATCC19420, M. smegmatis ATCC 19420; read-out: MIC Mycobacterium smegmatis ATCC 19420. An excerpt:
(§2) MICs in Mycobacterium smegmatis ATCC 19420 and Mycobacterium smegmatis ATCC 19420 derivatives were quantified using broth microdilution assays as described [Clinical and Laboratory Standards Institute (CLSI/NCCLS) (2009) Methods for Dilution Antimicrobial Susceptibility Tests for Bacteria That Grow Aerobically; Approved Standard, Eighth Edition. CLIS Document M07-A8 (CLIS, Wayne Pa.)].
On the technique in general: In broth dilution the organism is exposed to a series of concentrations in liquid medium.

Series [4] concerns rifampin-resistant mutants, derivatives of M. smegmatis ATCC19420. As to the kind of experiment: MICs in rifampin-resistant mutants (cross-resistance levels). The class given is cell-based, Mycobacterium smegmatis.
Description: as §2

Series [5] relates to Vero E6 ATCC CRL1586 cells. As to the kind of experiment: Mammalian-cell cytotoxicity, minimal cytotoxic concentration (CellTiter96). The class given is cell-based. As for the experimental part: Minimal cytotoxic concentrations (MCCs) against mammalian cells in culture were determined using Vero E6 ATCC CRL1586 cells and the CellTiter96 assay kit (Promega, Inc.). […]

`COc1ccccc1NC(=O)C(Cc1ccccc1)NC(=O)c1ccccc1` (stereo not shown) [I-17]: the MIC in series [1] amounted to 3.13 µg/mL (≈ 8.36 µM); in series [2] it was 6.25 µg/mL (≈ 16.7 µM); in series [3], 0.39 µg/mL (≈ 1.04 µM). Moreover, the “cross-resistance of rifampin-resistant mutants to the compound” value (“cross-resistance” below) in series [4] is on record as “No rifampin-resistant mutant was found to exhibit cross-resistance”. For the same molecule, in series [5], the “MCC mammalian cells Vero E6 ATCC CRL1586” value was greater than 37 µg/mL.
On to `COc1ccccc1C(=O)NC(Cc1ccccc1)C(=O)Nc1ccccc1C` (stereo not shown) [I-25], for which the MIC in series [1] is greater than 50 µg/mL; in series [3], 6.25 µg/mL (≈ 16.1 µM). In series [4], the “cross-resistance” value is listed as “No rifampin-resistant mutant was found to exhibit cross-resistance”. Besides, in series [5], the “MCC mammalian cells Vero E6 ATCC CRL1586” value amounted to 57 µg/mL.
`Cc1ccc(Br)cc1NC(=O)C(Cc1ccccc1)NC(=O)c1ccccc1` (stereo not shown) [I-97]: the MIC is 25 µg/mL (≈ 57.2 µM) in series [1], greater than 50 µg/mL in series [2] and 0.78 µg/mL (≈ 1.78 µM) in series [3]. Also, the “cross-resistance” value in series [4] is listed as “No rifampin-resistant mutant was found to exhibit cross-resistance”.
In the case of `Cc1ccccc1NC(=O)C(Cc1ccccc1)NC(=O)c1ccccc1Br` (stereo not shown) [I-102], the MIC was greater than 50 µg/mL in series [1] and 3.12 µg/mL (≈ 7.15 µM) in series [3]. Also, the “cross-resistance” value in series [4] is on record as “No rifampin-resistant mutant was found to exhibit cross-resistance”. For the same molecule, in series [5], the “MCC mammalian cells Vero E6 ATCC CRL1586” value was 29 µg/mL.
Regarding `Cc1ccccc1NC(=O)C(Cc1ccc(OC(=O)c2ccccc2)cc1)NC(=O)c1ccccc1` (stereo not shown) [I-236, 4-(2-benzamido-3-oxo-3-(o-tolylamino)propyl)phenyl benzoate], the MIC stood at 25 µg/mL (≈ 52.2 µM) in series [1] and 0.39 µg/mL (≈ 0.815 µM) in series [3]. Also, in series [4], the “cross-resistance” value is recorded as “No rifampin-resistant mutant was found to exhibit cross-resistance”. Also, the “MCC mammalian cells Vero E6 ATCC CRL1586” value in series [5] is greater than 48 µg/mL.
The corresponding values for `Cc1ccccc1NC(=O)C(Cc1ccccc1)NC(=O)c1cccnc1` (stereo not shown) [II-13] are greater than 50 µg/mL, 6.25 µg/mL (≈ 17.4 µM), “No rifampin-resistant mutant was found to exhibit cross-resistance” and greater than 36 µg/mL.
For `Cn1ncc2c(NC(=O)C(Cc3ccccc3)NC(=O)c3ccccc3)cccc21` (stereo not shown) [IX-225, N-(1-((1-methyl-1H-indazol-4-yl)amino)-1-oxo-3-phenylpropan-2-yl)benzamide], the MIC worked out at 1.56 µg/mL (≈ 3.92 µM) in series [1], 1.56 µg/mL (≈ 3.92 µM) in series [2] and 0.195 µg/mL (≈ 0.489 µM) in series [3]. For the same molecule, the “MCC mammalian cells Vero E6 ATCC CRL1586” value in series [5] stood at 45 µg/mL.
For the molecule `O=C(NC(Cc1ccccc1)C(=O)Nc1cccc2nc[nH]c12)c1ccccc1` (stereo not shown) [IX-230, N-(1-((1H-benzo[d]imidazol-7-yl)amino)-1-oxo-3-phenylpropan-2-yl)benzamide], the minimum inhibitory concentration (MIC) was found to be 50 µg/mL (≈ 130 µM) in series [1], 25 µg/mL (≈ 65 µM) in series [2] and 0.39 µg/mL (≈ 1.01 µM) in series [3]. Moreover, the “MCC mammalian cells Vero E6 ATCC CRL1586” value in series [5] worked out at 84 µg/mL.
The corresponding values for `Cn1ccc2cccc(NC(=O)C(Cc3ccccc3)NC(=O)c3ccccc3)c21` (stereo not shown) [IX-231, N-(1-((1-methyl-1H-indol-7-yl)amino)-1-oxo-3-phenylpropan-2-yl)benzamide] are 25 µg/mL (≈ 62.9 µM), greater than 50 µg/mL, 1.56 µg/mL (≈ 3.92 µM) and greater than 100 µg/mL.
For `Cn1cnc2cccc(NC(=O)C(Cc3ccccc3)NC(=O)c3ccccc3)c21` (stereo not shown) [IX-232, N-(1-((1-methyl-1H-benzo[d]imidazol-7-yl)amino)-1-oxo-3-phenyl-propan-2-yl)benzamide] the same measures were 25 µg/mL (≈ 62.7 µM), 25 µg/mL (≈ 62.7 µM), 1.56 µg/mL (≈ 3.92 µM) and 96 µg/mL.
For `O=C(NC(Cc1ccccc1)C(=O)Nc1cccc2ncsc12)c1ccccc1` (stereo not shown) [IX-234, N-(1-(benzo[d]thiazol-7-ylamino)-1-oxo-3-phenylpropan-2-yl)benz-amide] the same measures were 3.12 µg/mL (≈ 7.78 µM), 3.12 µg/mL (≈ 7.78 µM), 0.39 µg/mL (≈ 0.971 µM) and 80 µg/mL.
As for `O=C(NC(Cc1ccccc1)C(=O)Nc1cccc2[nH]ncc12)c1cccc2[nH]ccc12` (stereo not shown) [IX-241, N-(1-((1H-indazol-4-yl)amino)-1-oxo-3-phenylpropan-2-yl)-1H-indole-4-carboxamide], the MIC was found to be 25 µg/mL (≈ 59 µM) in series [1], 12.5 µg/mL (≈ 29.5 µM) in series [2] and 0.78 µg/mL (≈ 1.84 µM) in series [3]. Moreover, the “MCC mammalian cells Vero E6 ATCC CRL1586” value in series [5] was found to be 36 µg/mL.
The corresponding values for `O=C(NC(Cc1ccccc1)C(=O)Nc1ccccc1N1CCNCC1)c1cccc2[nH]ccc12` (stereo not shown) [IX-242, N-(1-oxo-3-phenyl-1-((2-(piperazin-1-yl)phenyl)amino)propan-2-yl)-1H-indole-4-carboxamide] are 3.12 µg/mL (≈ 6.68 µM), 0.78 µg/mL (≈ 1.67 µM), 0.04 µg/mL (≈ 0.0855 µM) and 12 µg/mL.
The corresponding values for `O=C(NC(Cc1ccccc1)C(=O)Nc1cc(F)ccc1N1CCNCC1)c1cccc2[nH]ccc12` (stereo not shown) [IX-243] are 6.25 µg/mL (≈ 12.9 µM), 0.78 µg/mL (≈ 1.61 µM), 0.19 µg/mL (≈ 0.391 µM) and 11 µg/mL.
For `COc1ccc(F)cc1NC(=O)C(Cc1ccccc1)NC(=O)c1cccc2[nH]ccc12` (stereo not shown) [IX-244, N-(1-((5-fluoro-2-methoxyphenyl)amino)-1-oxo-3-phenylpropan-2-yl)-1H-indole-4-carboxamide] the same measures were 6.25 µg/mL (≈ 14.5 µM), 3.12 µg/mL (≈ 7.24 µM), 0.78 µg/mL (≈ 1.81 µM) and 58 µg/mL.
In the case of `O=C(NC(Cc1ccc(O)cc1)C(=O)Nc1cc(F)ccc1N1CCNCC1)c1ccccc1` (stereo not shown) [IX-246, N-(1-((5-fluoro-2-(piperazin-1-yl)phenyl)amino)-3-(4-hydroxy-phenyl)-1-oxopropan-2-yl)benzamide], the values for the MIC in series [1], in series [2] and in series [3] were 3.12 µg/mL (≈ 6.76 µM), 0.78 µg/mL (≈ 1.69 µM) and 0.195 µg/mL (≈ 0.422 µM), respectively. Also, in series [5], the “MCC mammalian cells Vero E6 ATCC CRL1586” value came to 34 µg/mL.
As to `CC1CN(c2ccccc2NC(=O)C(Cc2ccccc2)NC(=O)c2ccccc2)CC(C)O1` (stereo not shown) [IX-265, N-(1-((2-(2,6-dimethylmorpholino)phenyl)amino)-1-oxo-3-phenyl-propan-2-yl)benzamide], the MIC in series [1] came out at 6.25 µg/mL (≈ 13.7 µM); in series [2] it was 6.25 µg/mL (≈ 13.7 µM); in series [3], 1.56 µg/mL (≈ 3.41 µM). Moreover, in series [5], the “MCC mammalian cells Vero E6 ATCC CRL1586” value was greater than 100 µg/mL.
For `CC1CN(c2ccccc2NC(=O)C(Cc2ccc(O)cc2)NC(=O)c2ccccc2)CC(C)O1` (stereo not shown) [IX-266, N-(1-((2-(2,6-dimethylmorpholino)phenyl)amino)-3-(4-hydroxy-phenyl)-1-oxopropan-2-yl)benzamide], the MIC in series [1] was determined as 6.25 µg/mL (≈ 13.2 µM); in series [2], 6.25 µg/mL (≈ 13.2 µM); in series [3] it was 1.56 µg/mL (≈ 3.29 µM). In series [5], the “MCC mammalian cells Vero E6 ATCC CRL1586” value is 71 µg/mL.
Regarding `COc1ccc(Cl)cc1NC(=O)C(Cc1ccccc1)NC(=O)c1ccccc1F` (stereo not shown) [IX-278, N-(1-((5-chloro-2-methoxyphenyl)amino)-1-oxo-3-phenylpropan-2-yl)-2-fluorobenzamide], the MIC was 0.78 µg/mL (≈ 1.83 µM) in series [1], 2.3 µg/mL (≈ 5.39 µM) in series [2] and 0.39 µg/mL (≈ 0.914 µM) in series [3]. Moreover, in series [5], the “MCC mammalian cells Vero E6 ATCC CRL1586” value is 29 µg/mL.
On to `COc1ccc(Cl)cc1NC(=O)C(Cc1ccccc1)NC(=O)c1ccccc1C` (stereo not shown) [IX-279, N-(1-((5-chloro-2-methoxyphenyl)amino)-1-oxo-3-phenylpropan-2-yl)-2-methylbenzamide], for which the MIC came out at 0.78 µg/mL (≈ 1.84 µM) in series [1], 0.78 µg/mL (≈ 1.84 µM) in series [2] and 1.56 µg/mL (≈ 3.69 µM) in series [3]. Moreover, in series [5], the “MCC mammalian cells Vero E6 ATCC CRL1586” value came out at 87 µg/mL.
Consider `O=C(NC(Cc1ccccc1)C(=O)Nc1cccc2nc[nH]c12)c1ccccc1F` (stereo not shown) [IX-280, N-(1-((1H-benzo[d]imidazol-7-yl)amino)-1-oxo-3-phenylpropan-2-yl)-2-fluorobenzamide], for which the MIC was 12.5 µg/mL (≈ 31.1 µM) in series [1], 25 µg/mL (≈ 62.1 µM) in series [2] and 1.56 µg/mL (≈ 3.88 µM) in series [3]. In addition, the “MCC mammalian cells Vero E6 ATCC CRL1586” value in series [5] stood at 78 µg/mL.
For `Cc1ccccc1C(=O)NC(Cc1ccccc1)C(=O)Nc1cccc2nc[nH]c12` (stereo not shown) [IX-281, N-(1-((1H-benzo[d]imidazol-7-yl)amino)-1-oxo-3-phenylpropan-2-yl)-2-methylbenzamide] the same measures were 12.5 µg/mL (≈ 31.4 µM), 12.5 µg/mL (≈ 31.4 µM), 0.78 µg/mL (≈ 1.96 µM) and 92 µg/mL.
For `Cc1ccccc1C(=O)NC(Cc1ccccc1)C(=O)Nc1cccc2c1cnn2C` (stereo not shown) [IX-297, 2-methyl-N-(1-((1-methyl-1H-indazol-4-yl)amino)-1-oxo-3-phenyl-propan-2-yl)benzamide] the same measures were 12.5 µg/mL (≈ 30.3 µM), 12.5 µg/mL (≈ 30.3 µM), 0.78 µg/mL (≈ 1.89 µM) and greater than 100 µg/mL.
On to `CC(=O)N1CCCN(c2ccc(F)cc2NC(=O)C(Cc2ccccc2)NC(=O)c2ccccc2F)CC1` (stereo not shown) [IX-319, N-(1-((2-(4-acetyl-1,4-diazepan-1-yl)-5-fluorophenyl)amino)-1-oxo-3-phenylpropan-2-yl)-2-fluorobenzamide], for which the MIC in series [1] came to 3.12 µg/mL (≈ 6 µM); in series [2], 6.25 µg/mL (≈ 12 µM); in series [3], 0.39 µg/mL (≈ 0.749 µM). Also, in series [5], the “MCC mammalian cells Vero E6 ATCC CRL1586” value was greater than 100 µg/mL.
